Reference: patent publication US20230023559A1, “ARYLMETHYLENE HETEROCYCLIC COMPOUNDS AS KV1.3 POTASSIUM SHAKER CHANNEL BLOCKERS” (D. E. Shaw Research, LLC, priority 2019, published 2023)

Experiments:
Kv1.3 potassium channel = molecular target: T1, Kv1.3 potassium channel (Homo sapiens, UniProt P22001); assay: Kv1.3 potassium channel blocker activity, automated whole-cell patch clamp (Patchliner); assay type: cell-based; conditions: CHO-K1 cells stably expressing Kv1.3; whole cell current inhibition; read-out: Kv1.3_IC50
T1 construct: expressed in transfected cells
Outline: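 Peak-current block was recorded on stable Kv1.3 CHO-K1 cells by automated patch clamp, stepping from a −90 mV holding potential to +40 mV for 100 ms at 0.1 Hz with 10 s breaks between trains. Online P/4 leak subtraction, 10 kHz sampling; compound exposure under 10 s per train.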

hERG channel = hERG channel (Homo sapiens, UniProt Q12809); assay: hERG electrophysiology, automated whole-cell patch clamp (Patchliner)
Chain of hERG channel (Q12809 whole entry): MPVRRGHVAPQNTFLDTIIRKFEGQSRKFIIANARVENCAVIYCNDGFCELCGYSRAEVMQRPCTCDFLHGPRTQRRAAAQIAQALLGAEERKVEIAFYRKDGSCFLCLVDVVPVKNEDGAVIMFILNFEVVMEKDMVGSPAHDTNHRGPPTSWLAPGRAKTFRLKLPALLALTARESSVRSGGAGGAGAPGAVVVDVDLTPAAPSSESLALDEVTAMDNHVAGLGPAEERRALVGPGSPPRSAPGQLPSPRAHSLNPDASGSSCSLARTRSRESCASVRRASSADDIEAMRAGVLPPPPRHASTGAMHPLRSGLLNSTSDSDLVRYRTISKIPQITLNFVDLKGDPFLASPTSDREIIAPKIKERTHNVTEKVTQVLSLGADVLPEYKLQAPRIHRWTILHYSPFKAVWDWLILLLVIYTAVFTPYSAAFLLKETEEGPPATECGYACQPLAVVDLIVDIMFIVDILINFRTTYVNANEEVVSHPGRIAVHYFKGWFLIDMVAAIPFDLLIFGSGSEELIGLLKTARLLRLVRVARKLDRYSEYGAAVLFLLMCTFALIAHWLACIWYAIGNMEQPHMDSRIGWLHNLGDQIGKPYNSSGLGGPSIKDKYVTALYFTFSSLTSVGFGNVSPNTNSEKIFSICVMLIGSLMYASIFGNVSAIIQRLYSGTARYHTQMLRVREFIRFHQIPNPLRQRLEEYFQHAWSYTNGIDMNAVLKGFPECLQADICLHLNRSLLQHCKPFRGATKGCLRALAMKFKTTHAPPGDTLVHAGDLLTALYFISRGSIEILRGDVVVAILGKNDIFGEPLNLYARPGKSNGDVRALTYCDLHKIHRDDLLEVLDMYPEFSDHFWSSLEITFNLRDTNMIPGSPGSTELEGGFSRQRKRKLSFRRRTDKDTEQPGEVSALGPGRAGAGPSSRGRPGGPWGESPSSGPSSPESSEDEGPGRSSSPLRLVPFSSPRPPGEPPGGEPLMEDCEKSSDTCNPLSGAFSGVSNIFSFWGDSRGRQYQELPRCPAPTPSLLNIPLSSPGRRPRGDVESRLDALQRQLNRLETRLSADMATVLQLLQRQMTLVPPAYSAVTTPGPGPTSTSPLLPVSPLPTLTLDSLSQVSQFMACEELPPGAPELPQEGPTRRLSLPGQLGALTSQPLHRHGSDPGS

T1 sequence (P22001 whole entry): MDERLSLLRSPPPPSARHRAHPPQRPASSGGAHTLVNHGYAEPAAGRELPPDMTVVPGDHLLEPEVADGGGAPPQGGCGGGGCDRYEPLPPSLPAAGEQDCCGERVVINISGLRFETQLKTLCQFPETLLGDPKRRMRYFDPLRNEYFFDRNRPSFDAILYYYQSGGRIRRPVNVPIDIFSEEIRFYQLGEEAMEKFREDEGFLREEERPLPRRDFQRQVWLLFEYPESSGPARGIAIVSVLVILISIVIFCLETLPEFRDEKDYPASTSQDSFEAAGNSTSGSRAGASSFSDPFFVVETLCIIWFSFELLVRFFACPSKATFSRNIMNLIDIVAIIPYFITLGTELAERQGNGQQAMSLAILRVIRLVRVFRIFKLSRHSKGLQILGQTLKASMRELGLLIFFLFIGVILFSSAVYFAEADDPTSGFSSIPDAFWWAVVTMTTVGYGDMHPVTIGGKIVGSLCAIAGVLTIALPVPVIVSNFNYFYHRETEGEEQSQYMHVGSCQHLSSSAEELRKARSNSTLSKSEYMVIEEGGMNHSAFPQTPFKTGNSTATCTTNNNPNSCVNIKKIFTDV

| Structure (SMILES) | IC50 (Kv1.3 potassium channel) [µM] | IC50 (hERG channel) [µM] |
| --- | --- | --- |
| NCC(=O)N1CCC([C@@H](N)c2cc(Cl)c(Cl)cc2O)CC1 [Compound 92, 2-amino-1-[4-[(R)-amino(4,5-dichloro-2-hydroxyphenyl)methyl]piperidin-1-yl]ethan-1-one Trifluoroacetic Acid] | < 0.5 | > 30 |
| NC(c1cc(Cl)c(Cl)cc1O)C1CCN(c2ccccn2)CC1 (centres unmarked) [Compound 70, 2-[amino[1-(pyridin-2-yl)piperidin-4-yl]methyl]-4,5-dichlorophenol Trifluoroacetic Acid] | < 0.5 | < 30 |
| CC1CN(C(=O)[C@H](O)CO)CCC1[C@@H](N)c1cc(Cl)c(Cl)cc1O (single isomer, unassigned; isomer 1) [Compound 331] | < 0.5 | > 30 |
| N[C@@H](c1cc(Cl)c(Cl)cc1O)C1CCN(S(=O)(=O)C2CNC2)CC1 [Compound 107, 2-[(R)-amino[1-(azetidine-3-sulfonyl)piperidin-4-yl]methyl]-4,5-dichlorophenol] | < 0.5 | > 30 |
| CC(=O)NC(c1c(O)ccc2ccccc12)C1CCNCC1 (centres unmarked) [Compound 36, N-[(2-hydroxynaphthalen-1-yl)(piperidin-4-yl)methyl]acetamide Trifluoroacetic Acid] | < 10 | > 30 |
| N[C@@H](c1cc(Cl)c(Cl)cc1O)C1CCN(C(=O)c2cn[nH]n2)CC1 [Compound 157, 2-[(R)-amino[1-(1H-1,2,3-triazole-4-carbonyl)piperidin-4-yl]methyl]-4,5-dichlorophenol trifluoroacetic acid] | < 0.5 | > 30 |
| CC(=O)N1CCC(C(O)c2cc(Cl)c(Cl)cc2O)CC1 (centres unmarked) [Compound 4, 1-(4-((4,5-dichloro-2-hydroxyphenyl)(hydroxy)methyl)piperidin-1-yl)ethanone] | < 10 | > 30 |
| C[C@@H]1C[C@@H]([C@@H](N)c2cc(Cl)c(Cl)cc2O)CCN1C(=O)[C@H](O)CO [Compound 327, (2R)-1-[(2R,4S)-4-[(R)-amino(4,5-dichloro-2-hydroxyphenyl)methyl]-2-methylpiperidin-1-yl]-2,3-dihydroxypropan-1-one Trifluoroacetic Acid] | < 10 | > 30 |
| Cc1cc(O)c([C@H](N)C2CCN(C(=O)c3ccc4c(c3)CNC4=O)CC2)cc1Cl [Compound 324, 5-[4-[(R)-amino(5-chloro-2-hydroxy-4-methylphenyl)methyl]piperidine-1-carbonyl]-2,3-dihydroisoindol-1-one trifluoroacetic acid] | < 0.5 | > 30 |
| N[C@@H](c1cc(Cl)c(Cl)cc1O)C1CCN(C(=O)c2c[nH]c(=O)cn2)CC1 [Compound 186, (R)-5-(4-(amino(4,5-dichloro-2-hydroxyphenyl)methyl)piperidine-1-carbonyl) pyrazin-2(1H)-one] | < 0.5 | > 30 |
| Cc1cc(O)c([C@H](N)C2CCN(C(=O)[C@H](O)CO)CC2)cc1F [Compound 283, (2R)-1-[4-[(R)-amino(5-fluoro-2-hydroxy-4-methylphenyl)methyl]piperidin-1-yl]-2,3-dihydroxypropan-1-one] | < 10 | > 30 |
| N[C@@H](c1cc(Cl)c(Cl)cc1O)C1CCN(C(=O)[C@@H](O)CO)CC1 (single isomer, unassigned) [Compound 120] | < 0.5 | > 30 |
| Cc1cc([C@H](N)C2CCN(C(=O)[C@H](O)CO)CC2)c(O)cc1Cl [Compound 198, (2R)-1-[4-[(R)-amino(4-chloro-2-hydroxy-5-methylphenyl)methyl]piperidin-1-yl]-2,3-dihydroxypropan-1-one] | < 10 | > 30 |
| CC(=O)N1CCC([C@H](N)c2cc(Cl)c(Cl)cc2O)CC1 (single isomer, unassigned) [Compound 19] | < 10 | < 30 |
| Cc1cc(O)c([C@H](N)C2CCN(C(=O)[C@H](O)CO)CC2)cc1Cl [Compound 190, (2R)-1-[4-[(R)-amino(5-chloro-2-hydroxy-4-methylphenyl)methyl]piperidin-1-yl]-2,3-dihydroxypropan-1-one Trifluoroacetic Acid] | < 0.5 | > 30 |
| N[C@@H](c1cc(Cl)c(Cl)cc1O)C1CCN(C(=O)[C@H]2CNCCO2)CC1 [Compound 97, (4-((R)-amino(4,5-dichloro-2-hydroxyphenyl)methyl)piperidin-1-yl)((R)-morpholin-2-yl)methanone trifluoroacetic acid] | < 0.5 | > 30 |
| C[C@@]1(C(=O)N2CCC([C@@H](N)c3cc(Cl)c(Cl)cc3O)CC2)CCCN1 [Compound 98, (4-((R)-amino(4,5-dichloro-2-hydroxyphenyl)methyl)piperidin-1-yl)((S)-2-methylpyrrolidin-2-yl)methanone] | < 0.5 | > 30 |

| Structure (SMILES) | IC50 (Kv1.3 potassium channel) [µM] | IC50 (hERG channel) [µM] |
| --- | --- | --- |
| CO[C@@H](CO)C(=O)N1CCC([C@@H](N)c2cc(Cl)c(Cl)cc2O)CC1 [Compound 185, (2S)-1-[4-[(R)-amino(4,5-dichloro-2-hydroxyphenyl)methyl]piperidin-1-yl]-3-hydroxy-2-methoxypropan-1-one trifluoroacetic acid] | < 10 | > 30 |
| Nc1nnc(C(=O)N2CCC([C@@H](N)c3cc(Cl)c(Cl)cc3O)CC2)o1 [Compound 155, 2-[(R)-amino[1-(5-amino-1,3,4-oxadiazole-2-carbonyl)piperidin-4-yl]methyl]-4,5-dichlorophenol trifluoroacetic acid] | < 10 | > 30 |
| N[C@@H](c1c(O)ccc2ccccc12)C1CCN(C(=O)[C@H](O)CO)CC1 [Compound 191, (2R)-1-[4-[(R)-amino(2-hydroxynaphthalen-1-yl)methyl]piperidin-1-yl]-2,3-dihydroxypropan-1-one Trifluoroacetic Acid] | < 10 | > 30 |
| N[C@@H](c1cc(Cl)c(Cl)cc1O)C1CCN(C(=O)CO)CC1 [Compound 135, 1-[4-[(R)-amino(4,5-dichloro-2-hydroxyphenyl)methyl]piperidin-1-yl]-2-hydroxyethan-1-one trifluoroacetic acid] | < 0.5 | > 30 |
| N[C@@H](c1cc(Cl)c(Cl)cc1O)C1CCN(C(=O)c2ccc(=O)[nH]c2)CC1 [Compound 305, 5-[4-[(R)-amino(4,5-dichloro-2-hydroxyphenyl)methyl]piperidine-1-carbonyl]-1,2-dihydropyridin-2-one trifluoroacetic acid] | < 0.5 | > 30 |
| CN1CCC(C(N)c2cc(Cl)c(Cl)cc2O)CC1 (centres unmarked) [Compound 21, 2-(amino(1-methylpiperidin-4-yl)methyl)-4,5-dichlorophenol] | < 10 | < 30 |
| Cc1[nH]ncc1C(=O)N1CCC([C@@H](N)c2cc(Cl)c(Cl)cc2O)CC1 [Compound 153, 2-[(R)-amino[1-(3-methyl-1H-pyrazole-4-carbonyl)piperidin-4-yl]methyl]-4,5-dichlorophenol trifluoroacetic acid] | < 0.5 | > 30 |
| CC(C)(O)CC(=O)N1CCC(C(N)c2cc(Cl)c(Cl)cc2O)CC1 (centres unmarked) [Compound 49, 1-(4-(amino(4,5-dichloro-2-hydroxyphenyl)methyl)piperidin-1-yl)-3-hydroxyl-3-methylbutan-1-one trifluoroacetic acid] | < 10 | < 30 |
| Cc1cc(O)c([C@H](N)C2CCN(C(=O)CO)CC2)cc1Cl [Compound 233, (R)-1-(4-(amino(5-chloro-2-hydroxy-4-methylphenyl)methyl)piperidin-1-yl)-2-hydroxyethan-1-one trifluoroacetic acid] | < 0.5 | > 30 |
| N[C@@H](c1cc(Cl)c(Cl)cc1O)C1CCN(C(=O)[C@H]2CC[C@H](O)C2)CC1 (single isomer, unassigned; isomer 1) [Compound 177] | < 10 | < 30 |
| N[C@@H](c1cc(Cl)c(Cl)cc1O)C1CCN(c2ccc(O)nc2)CC1 [Compound 302, (R)-5-(4-(amino(4,5-dichloro-2-hydroxyphenyl)methyl)piperidin-1-yl)pyridin-2-ol] | < 10 | > 30 |
| NC(c1cc(Cl)c(Cl)cc1O)C1CCN(C2CCOCC2)CC1 (centres unmarked) [Compound 44, 2-(amino(1-(tetrahydro-2H-pyran-4-yl)piperidin-4-yl)methyl)-4,5-dichlorophenol] | < 10 | < 30 |
| N[C@@H](c1cc(Cl)c(Cl)cc1O)[C@@H]1CCC(=O)NC1 (single isomer, unassigned; diastereoisomer 2) [Compound 39, 5-(amino(4,5-dichloro-2-hydroxyphenyl)methyl)piperidin-2-one Diastereoisomer 2] | < 10 | > 30 |
| CC(O)(CO)C(=O)N1CCC([C@@H](N)c2cc(Cl)c(Cl)cc2O)CC1 (stereo partly drawn) [Compound 201, 1-[4-[(R)-amino(4,5-dichloro-2-hydroxyphenyl)methyl]piperidin-1-yl]-2,3-dihydroxy-2-methylpropan-1-one Trifluoroacetic Acid] | < 10 | > 30 |
| NC(c1cc(Cl)c(Cl)cc1O)C1CCN(C(=O)[C@@H]2CCNC2)CC1 (stereo partly drawn) [Compound 66, (4-(amino(4,5-dichloro-2-hydroxyphenyl)methyl)piperidin-1-yl)((R)-pyrrolidin-3-yl)methanone Trifluoroacetic Acid] | < 0.5 | > 30 |
| CN1C(=O)CC[C@H]1C(=O)N1CCC([C@@H](N)c2cc(Cl)c(Cl)cc2O)CC1 [Compound 306, (S)-5-(4-((R)-amino(4,5-dichloro-2-hydroxyphenyl)methyl)piperidine-1-carbonyl)-1-methylpyrrolidin-2-one trifluoroacetic acid] | < 0.5 | > 30 |
| N[C@@H](c1cc(Cl)c(Cl)cc1O)C1CCN(C(=O)[C@H]2CNC(=O)C2)CC1 (single isomer, unassigned; isomer 2) [Compound 246] | < 0.5 | > 30 |
